From patent US20050137176A1, “Use of a steroidal or non-steroidal EcR receptor ligand in a cosmetic or dermatological preparation for maintaining cutaneous homeostasis” (L'OREAL, priority 2003, published 2005) come the findings set out here.

The subject of assay [1] is reconstructed epidermides. Description: Measurement of the thickness of the epidermis (histology, HES staining, image analysis). The class given is cell-based. Conditions: ecdysterone in culture medium of reconstructed epidermes, 7 days. As for the experimental part: Reconstructed epidermides were prepared according to the technique of Asselineau et al., 1985 (Asselineau D, Bernard B A, Bailly C. & Darmon M: Epidermal morphogenesis and induction of 67 kD Keratin polypeptide by culture at the air liquid interface Exp Cell Res 159: 536-539).
From the first day of exposure to the air/liquid interface, the epidermides were cultured in the presence of ecdysterone in the culture medium (1 to 1000 μg/ml). The epidermes were cultured for 7 days. The treatment was renewed every 48 hours by changing the culture medium. After treatment for 7 days, the epidermes were harvested. The histological analysis is performed after staining with HES (hematoxylin eosin saffron).
Epidermal thickness measurements were performed on histological slices. To do this, 10 measurements are taken on a field. For each sample, 5 fields are counted. These measurements are performed using a Leica Q600S image analysis system with an ×10 objective lens. The mean thickness obtained for each sample corresponds to 50 measurements taken.

Assay [2] has as its system keratinocytes derived from a mammoplasty. Put plainly: Measurement of cell multiplication of keratinocytes (number of cells per flask). The class given is cell-based, human. As for the experimental part:
The keratinocytes are derived from a mammoplasty. These keratinocytes were isolated and then cultured in KGM medium (Clonetics) supplemented with growth factor (EGF (Epidermal Growth Factor): 10 ng/ml, 0.4 μg/ml, insulin 5 μg/ml, BPE (Bovine Pituitary Extract) 4 ml/L). The cells are treated with ecdysterone for 8 hours to 48 hours. There is no EGF in the culture medium during the treatment with ecdysterone. […]

Assay [3] deals with normal human keratinocytes. Put plainly: Cell cycle analysis (DNA content by flow cytometry). Conditions: as a function of the amount of ecdysterone in the keratinocyte culture medium. Type of assay: cell-based. As for the experimental part: The cell cycle analysis consists in studying the DNA content of a cell population by flow cytometry. These studies were performed on normal human keratinocytes cultured as a monolayer in a defined medium (KGM-Clonetics).
The keratinocytes are derived from a mammoplasty. These keratinocytes were isolated and then cultured in KGM medium supplemented with growth factors (EGF: 10 ng/ml, 0.4 μg/ml, insulin 5 μg/ml, BPE (Bovine Pituitary Extract) 4 mL).
The cells are treated with ecdysterone for 8 hours to 48 hours. There is no EGF in the culture medium during the treatment with ecdysterone.
Ecdysterone was tested at the following concentrations: 1 μg/ml, 0.1 μg/ml and 0.01 μg/ml.
The protocol followed for the cell cycle analysis in flow cytometry is described in the following publication: Staiano-Coico L., Higgins P. J., Darzynkiewicz Z. et al; 1986 Human keratinocyte culture. Identification and stagind of epidermal cell subpopulations. J. Clin. Invest. 77, 396-404. The analysis was performed using a Facs Calibur 3C Trieur flow cytometer from the company Becton-Dickinson.

The test system of assay [4] is MRP8/MRP14 mRNA. Put plainly: Expression of MRP8/MRP14 messenger RNA in reconstructed epidermides. The settings on record: treatment for 7 days. The class given is cell-based. From the text: (§1) Ecdysterone was applied to the medium of reconstructed epidermides under the same conditions as those of Example 1.
(§2) After treatment for 7 days, the epidermides were harvested.

For assay [5], the system named is psoriasin mRNA. Put plainly: Expression of psoriasin messenger RNA in reconstructed epidermides. Type of assay: cell-based. Conditions: treatment for 7 days.
Source text: as §1, §2

Assay [6] concerns MRP8 and MRP14. Description: Protein markers MRP8 and MRP14 by immunofluorescence on histological slices. Type of assay: cell-based. Conditions: reconstructed epidermides, conditions of Example 1. As for the experimental part: Ecdysterone was added to the medium of reconstructed epidermides under the same conditions as those of Example 1.
The proteins MRP8 and MRP14 are proteins that are strongly expressed in reconstructed skin, in psoriatic skin and by keratinocytes that are hyperproliferative but that have, however, maintained the capacity to differentiate. The analysis of the protein markers MRP8 and MRP14 was performed by immunofluorescence on histological slices.

`CC(C)(O)CC[C@@H](O)[C@](C)(O)[C@H]1CC[C@@]2(O)C3=CC(=O)[C@@H]4C[C@@H](O)[C@@H](O)C[C@]4(C)[C@H]3CC[C@]12C` [Ecdysterone, (2b, 3b, 5b,22R)-2,3,14,20,22,25-hexahydroxycholest-7-en-6-one]: in assay [1], the “Parakeratosis or reduction in the thickness of the horny layer” value is on record as “not accompanied by parakeratosis”. Further, in assay [1], the “Thickness of the epidermis at the level of the live layers” value is “increase in the thickness of the epidermis at the level of the live layers”. The No of cells/flask is 3.6 × 10^5 cells/flask in assay [2] (0.001 μg/ml, 16 hours, second series); 3.6 × 10^5 cells/flask in assay [2] (0.001 μg/ml, 24 hours, second series); 1.6e+06 cells/flask in assay [2] (0.001 μg/ml, 48 hours, second series); 0.8 × 10^6 cells/flask in assay [2] (0.01 μg/ml, 16 hours, first series); 2.5 × 10^5 cells/flask in assay [2] (0.01 μg/ml, 16 hours, second series); 1.0 × 10^6 cells/flask in assay [2] (0.01 μg/ml, 24 hours, first series). The No of cells/flask in assay [2] (0.01 μg/ml, 24 hours, second series) is on record as 5.7 × 10^5 cells/flask; in assay [2] (0.01 μg/ml, 48 hours, second series) it was 1.6 × 10^6 cells/flask; in assay [2] (0.1 μg/ml, 8 hours, first series), 0.8 × 10^6 cells/flask; in assay [2] (0.1 μg/ml, 16 hours, first series), 1.0 × 10^6 cells/flask; in assay [2] (0.1 μg/ml, 16 hours, second series), 3.6 × 10^5 cells/flask; in assay [2] (0.1 μg/ml, 24 hours, first series), 1.1 × 10^6 cells/flask. The No of cells/flask in assay [2] (0.1 μg/ml, 24 hours, second series) is on record as 5.2 × 10^5 cells/flask; in assay [2] (0.1 μg/ml, 48 hours, second series), 1.5 × 10^6 cells/flask; in assay [2] (1 μg/ml, 8 hours, first series) it was 0.7 × 10^6 cells/flask; in assay [2] (1 μg/ml, 16 hours, first series), 0.5 × 10^6 cells/flask; in assay [2] (1 μg/ml, 24 hours, first series) it was 1.1 × 10^6 cells/flask. Also, in assay [2] (after treatment for 48 hours), the “Number of cells relative to the control cells” value was “no significant increase in the number of cells”. Also, the “Phases of the cell cycle (cell population between G0/G1 and G2/M)” value in assay [3] was “change in the cell population between the phases G0/G1 and G2/M”. The “Reduction of the expression of MRP8/MRP14 mRNA (factor)” value in assay [4] is listed as 1.7. Also, the “Reduction of the expression of psoriasin mRNA (factor)” value in assay [5] came out at 3.5. In addition, the “Expression of the proteins MRP8 and MRP14 on histological slices” value in assay [6] was “restricts the expression of MRP8 and MRP14 to the upper layers of the epidermis”.
